Test results from patent US7312306B2, “Substituted heterocyclic acyl-tripeptides useful as thrombin receptor modulators” (Ortho-McNeil Pharmaceutical, Inc., priority 1998, dated 2007).
Read-outs that look alike come from different tables or passages of the source. Starred links: 1 amine or outer side, 2 acyl side, 3 side chain; linkers in the order of their positions; H or OH if unused. Non-standard residues stand in square brackets, D forms with d. Residues, ends and D or L forms follow the SMILES beside them. ξ: configuration not given here. Triazole(1,2,4-3-CO,5-NH) = O=C(c1n[nH]c(N[*:1])n1)[*:2]; Phe(4-F) = N[CH](Cc1ccc(F)cc1)C(=O)O; ξNip = O=C(C1CCCN([*:1])C1)[*:2]; Cha = N[CH](CC1CCCCC1)C(=O)O

Key:
platelet aggregation = experiment: In vitro agonist platelet aggregation assay (gel-filtered platelets); assay type: cell-based, Human
Experimental: (§1) In Vitro Agonist Platelet Aggregation Assay/Inhibition of Thrombin-induced Gel-filtered Platelet Aggregation Assay
(§2) The percentage of platelet aggregation is calculated as an increase in light transmission of compound-treated platelet concentrate vs. control-treated platelet concentrate. Human blood is obtained from drug free, normal donors into tubes containing 0.13 M sodium citrate. Platelet rich plasma (PRP) is collected by centrifugation of whole blood at 200×g for 10 min at 25° C. The PRP (5 mL) is gel filtered through Sepharose 2B (bed volume 50 mL), and the platelet count is adjusted to 2×10^7 platelets per sample. The following constituents are added to a siliconized cuvette: concentrated platelet filtrate and Tyrode's buffer (0.14 M NaCl, 0.0027 M KCl, 0.012 M NaHCO3, 0.76 mM Na2HPO4, 0.0055 M glucose, 2 mg/mL BSA and 5.0 mM HEPES @ pH 7.4) in an amount equal to 350 l, 50 l of 20 mM calcium and 50 l of the test compound. Aggregation is monitored in a BIODATA aggregometer for the 3 min following the addition of agonist (thrombin 50 l of 1 unit/mL).

[1] = system: gel-filtered platelets aggregation induced by thrombin; experiment: Inhibition of thrombin-induced gel-filtered platelet aggregation assay; assay type: cell-based; conditions: Homo sapiens
Experimental: as §1, §2

[2] = agonist activity, human gel-filtered platelets, Table 1, read-out: EC50 (M), EC50 values for platelet aggregation
[3] = Homo sapiens, read-out: EC50 (M), EC50 values for platelet aggregation
[4] = gel-filtered platelets aggregation induced by thrombin, Table 2, read-out: IC50 (M), inhibition of platelet aggregation

Row | SMILES | EC50 (platelet aggregation; [2]) [M] | IC50 [1, 4] [M] | other results
1 | N=C(N)NCCC[C@H](NC(=O)[C@H](CC1CCCCC1)NC(=O)c1n[nH]c(N)n1)C(=O)N[C@@H](Cc1ccccc1)C(N)=O [Compound 1] | 7.5e-07 |  | 
2 | N=C(N)NCCCC(NC(=O)C(Cc1ccccc1)NC(=O)C(CCCNC(=N)N)NC(=O)C(CC1CCCCC1)NC(=O)c1n[nH]c(N)n1)C(N)=O (centres unmarked) [Compound 9] ({Triazole(1,2,4-3-CO,5-NH)}-[Cha]RFR-NH2; configuration not given here) |  |  | EC50 (platelet aggregation; [3]): 1.21e-06 M
3 | N=C(N)NCCCC(NC(=O)C(CC1CCCCC1)NC(=O)c1n[nH]c(NC(=O)C(F)=Cc2ccccc2)n1)C(=O)NC(Cc1ccccc1)C(N)=O (centres unmarked) [Compound 12] | 1.72e-06 |  | 
4 | N=C(N)NCCCC(NC(=O)C(CC1CCCCC1)NC(=O)c1n[nH]c(NC(=O)C=Cc2ccc(F)cc2)n1)C(=O)NC(Cc1ccccc1)C(N)=O (centres unmarked) [Compound 26] |  |  | EC50 (platelet aggregation; [3]): 7.9e-06 M; IC50 ([1]; read-out: IC50 (M), inhibition of platelet aggregation): 1.3e-05 M
5 | N=C(N)NCCCC(NC(=O)C(CC1CCCCC1)NC(=O)C1CCCN(C(=O)C(N)Cc2ccc(F)cc2)C1)C(=O)NC(Cc1ccccc1)C(N)=O (centres unmarked) [Compound 32] (H-[Phe(4-F)][ξNip][Cha]RF-NH2; configuration not given here) | 2.6e-05 |  | 
6 | N=C(N)NCCCC(NC(=O)C(CC1CCCCC1)NC(=O)c1n[nH]c(NC(=O)C(=Cc2ccccc2)c2ccccc2)n1)C(=O)NC(Cc1ccccc1)C(N)=O (centres unmarked) [Compound 34] |  | 1.9e-05 | 

The next lines start with results.

Row | EC50 (platelet aggregation; [2]) [M] | IC50 [1, 4] [M] | SMILES | other results
7 |  | 8.4e-06 | Cc1c(S(=O)(=O)N[C@@H](CC2CCCCC2)C(=O)N[C@@H](CCCNC(=N)N)C(=O)N[C@@H](Cc2ccccc2)C(N)=O)sc2ccc(Cl)cc12 [Compound 36] | 
8 |  | 2.1e-05 | N=C(N)NCCC[C@H](NC(=O)[C@H](CC1CCCCC1)NC(=O)c1cc2ccccc2s1)C(=O)N[C@@H](Cc1ccccc1)C(N)=O [Compound 37] | 
9 | 4e-06 |  | N=C(N)NCCC[C@H](NC(=O)[C@H](CC1CCCCC1)NC(=O)c1ccc2[nH]cnc2c1)C(=O)N[C@@H](Cc1ccccc1)C(N)=O [Compound 41] | 
10 |  | 1.25e-05 | N=C(N)NCCC[C@H](NC(=O)[C@H](CC1CCCCC1)NS(=O)(=O)c1ccc2ccccc2c1)C(=O)N[C@@H](Cc1ccccc1)C(N)=O [Compound 43] | 
